The results in this text go back to patent EP0326329B1, “Quinazoline derivatives useful as insecticides” (Dow AgroSciences LLC, priority 1988, dated 1989).

Format in all cases: in vivo
In assay [1] the test system is Erysiphe graminis tritici (powdery mildew). The assay can be described thus: Greenhouse Test 1, foliar spray fungicide screen (POWD MDEW), host wheat. To be noted: disease control rating, 400 ppm (+++ at 100 ppm).
Assay [2] concerns Pyricularia oryzae (rice blast). To be noted: disease control rating, foliar spray, host rice; 400 ppm (+++ at 100 ppm).
For assay [3], the system named is Puccinia recondita tritici (leaf rust). The assay can be described thus: Greenhouse Test 1, foliar spray fungicide screen (LEAF RUST), host wheat. To be noted: disease control rating, 400 ppm (+++ at 100 ppm).
Assay [4] relates to Botrytis cinerea (gray mold). The assay can be described thus: Greenhouse Test 1, foliar spray fungicide screen (GRAY MOLD), host grape berries. To be noted: disease control rating, 400 ppm (+++ at 100 ppm).
Assay [5] has as its system Pseudoperonospora cubensis (downy mildew). The assay can be described thus: Greenhouse Test 1, foliar spray fungicide screen (DOWN MDEW), host squash. To be noted: disease control rating, 400 ppm (+++ at 100 ppm).
The test system of assay [6] is Southern corn rootworm (Diabrotica undecimpuctata howardi Barber). Briefly: Mite/insect screen, soil treatment (CRW). Conditions: Diabrotica, percent mortality, soil treatment, read-out: CRW RESULTS %; for mortality at 12 ppm: CRW rate 12.00 ppm; for mortality at 24 ppm: CRW rate 24.00 ppm. In outline: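 Five 2–3 instar larvae were placed on dry sandy soil with a presoaked corn seed after the soil had received 1 mL of compound solution and dried 6–12 h; cups were kept capped at 23°C. Mortality (%) and phytotoxicity were read after standard exposure. Formulation: acetone/alcohol with emulsifiers, water-diluted.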

The subject of assay [7] is southern armyworm (Spodopetra eridania Cramer). The assay can be described thus: Mite/insect screen, sprayed squash leaves (SAW). To be noted: Spodoptera eridania, percent mortality, read-out: SAW RESULTS %; for mortality at 200 ppm: spray rate 200 ppm; for mortality at 400 ppm: spray rate 400 ppm. The method in brief:
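Acetone/alcohol (50:50) + emulsifier blends 23 g/L and 13 g/L; water dilution to test concs. Spray both leaf surfaces to runoff, dry 1 h. For armyworm, 2 excised uninfested leaves into Petri dish with larvae. Readout: % mortality, phytotoxicity.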

Assay [8] relates to Twospotted spider mites (Tetranychus urticae Koch). Briefly: Mite/insect screen, sprayed squash cotyledons (SM). To be noted: Tetranychus urticae, percent mortality, read-out: SM RESULTS %; for mortality at 200 ppm: spray rate 200 ppm; for mortality at 400 ppm: spray rate 400 ppm. In outline: (§1)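 Water-diluted formulations of each compound (acetone/alcohol 50:50 with 23 g/L and 13 g/L emulsifier blends) are sprayed over both leaf faces to runoff. After a standard exposure period, percent kill and phytotoxicity are recorded.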

The test system of assay [9] is melon aphids (Aphis gossypii Glover). The assay can be described thus: Mite/insect screen, sprayed squash cotyledons (MA). Conditions: Aphis gossypii, percent mortality, read-out: MA RESULTS %; for mortality at 200 ppm: spray rate 200 ppm; for mortality at 400 ppm: spray rate 400 ppm. The method in brief: as §1

As to `Brc1ccc2ncnc(NCCc3ccc(Oc4ccccc4)cc3)c2c1` [Example 177, 6-bromo-N-[2-(4-phenoxyphenyl)ethyl]-4-quinazolinamine], the “POWD MDEW” value in assay [1] is “- (- = 0-19% control at 400 ppm)”. Further, the “RICE BLAST” value in assay [2] is recorded as “+++ (+++ = 90-100% control at 100 ppm)”. In addition, the “LEAF RUST” value in assay [3] was “+++ (+++ = 90-100% control at 100 ppm)”. In assay [4], the “GRAY MOLD” value is listed as “+ (+ = 20-89% control at 400 ppm)”. Also, in [5], the “DOWN MDEW” value is on record as “+++ (+++ = 90-100% control at 100 ppm)”. The mortality at 12 ppm in assay [6] worked out at 0%. Moreover, the mortality at 24 ppm in assay [6] was 0%. Also, the mortality at 200 ppm was 0% in assay [7], 0% in [8] and 80% in [9]. The mortality at 400 ppm was determined as 0% in [7], 50% in assay [8] and 50% in assay [9].

As to `CC(C)(C)c1ccc(CCCCOc2ncnc3ccccc23)cc1` [Example 178, 4-[4-[4-(t-butyl)phenyl]butoxy]quinazoline], in assay [1], the “POWD MDEW” value is recorded as “++ (++ = 90-100% control at 400 ppm)”. The “RICE BLAST” value in assay [2] is “- (- = 0-19% control at 400 ppm)”. The “LEAF RUST” value in assay [3] was “- (- = 0-19% control at 400 ppm)”. The “GRAY MOLD” value in [4] is “+ (+ = 20-89% control at 400 ppm)”. Further, the “DOWN MDEW” value in assay [5] is on record as “+ (+ = 20-89% control at 400 ppm)”. Also, in assay [6], the mortality at 12 ppm was 0% and the mortality at 24 ppm was determined as 0%. In addition, in assay [7], the mortality at 200 ppm stood at 0% and the mortality at 400 ppm came out at 0%. Also, in assay [8], the mortality at 200 ppm was 40% and the mortality at 400 ppm stood at 100%. Further, in assay [9], the mortality at 200 ppm was determined as 80% and the mortality at 400 ppm worked out at 100%.

For the molecule `CCCCOc1ccc(CCOc2ncnc3ccccc23)cc1` [Example 180, 4-[2-(4-butoxyphenyl)ethoxy]quinazoline], in assay [1], the “POWD MDEW” value is reported as “+++ (+++ = 90-100% control at 100 ppm)”. In assay [2], the “RICE BLAST” value was “+++ (+++ = 90-100% control at 100 ppm)”. In addition, the “LEAF RUST” value in [3] is “+++ (+++ = 90-100% control at 100 ppm)”. Further, the “GRAY MOLD” value in assay [4] is on record as “- (- = 0-19% control at 400 ppm)”. In addition, the “DOWN MDEW” value in [5] is given as “+++ (+++ = 90-100% control at 100 ppm)”. Further, in [6], the mortality at 12 ppm turned out to be 0% and the mortality at 24 ppm amounted to 0%. In [7], the mortality at 200 ppm amounted to 0% and the mortality at 400 ppm was 100%. Further, in assay [8], the mortality at 200 ppm turned out to be 80% and the mortality at 400 ppm stood at 100%. For the same molecule, in assay [9], the mortality at 200 ppm amounted to 50% and the mortality at 400 ppm is 100%.

Consider `CC(C)c1cccc(C(C)C)c1OCCOc1ncnc2ccccc12` [Example 181, 4-[2-[2,6-bis(i-propyl)phenoxy]ethoxy]quinazoline], for which the “POWD MDEW” value in [1] is given as “++ (++ = 90-100% control at 400 ppm)”. In [2], the “RICE BLAST” value is on record as “+ (+ = 20-89% control at 400 ppm)”. Also, the “LEAF RUST” value in assay [3] is “- (- = 0-19% control at 400 ppm)”. The “GRAY MOLD” value in assay [4] is “- (- = 0-19% control at 400 ppm)”. Further, the “DOWN MDEW” value in assay [5] is on record as “+ (+ = 20-89% control at 400 ppm)”. For the same molecule, in assay [6], the mortality at 12 ppm worked out at 0%. In addition, in assay [6], the mortality at 24 ppm was 0%. In addition, the figures for the mortality at 200 ppm in assay [7], in assay [8] and in [9] were 0%, 0% and 60%, respectively. The mortality at 400 ppm in assay [7] was 0%; in assay [8] it was 40%; in [9] it was 50%.

For `CC(COc1ncnc2ccccc12)c1cccc(Oc2ccccc2)c1` (centres unmarked) [Example 182, 4-[2-(3-phenoxyphenyl)propoxy]quinazoline], the “POWD MDEW” value in assay [1] is “++ (++ = 90-100% control at 400 ppm)”. In addition, the “RICE BLAST” value in assay [2] is “- (- = 0-19% control at 400 ppm)”. Also, the “LEAF RUST” value in assay [3] is given as “++ (++ = 90-100% control at 400 ppm)”. For the same molecule, the “GRAY MOLD” value in [4] is “- (- = 0-19% control at 400 ppm)”. Also, in [5], the “DOWN MDEW” value is “- (- = 0-19% control at 400 ppm)”. Also, the mortality at 12 ppm in [6] amounted to 0%. The mortality at 24 ppm in [6] was determined as 0%. Moreover, the results for the mortality at 200 ppm in [7], in [8] and in [9] were 0%, 0% and 80%, respectively. The mortality at 400 ppm in assay [7] is 0%; in assay [8], 80%; in assay [9] it was 100%.

On to `N#Cc1ccc(CCOc2ncnc3ccccc23)cc1` [Example 183, 4-[2-[(4-quinazolinyl)oxy]ethyl]benzonitrile], for which, in [1], the “POWD MDEW” value is “+ (+ = 20-89% control at 400 ppm)”. Also, in [2], the “RICE BLAST” value is given as “++ (++ = 90-100% control at 400 ppm)”. Besides, in assay [3], the “LEAF RUST” value is given as “+++ (+++ = 90-100% control at 100 ppm)”. Moreover, in assay [4], the “GRAY MOLD” value is reported as “- (- = 0-19% control at 400 ppm)”. Further, the “DOWN MDEW” value in [5] was “+ (+ = 20-89% control at 400 ppm)”. Further, in assay [6], the mortality at 12 ppm is 0% and the mortality at 24 ppm worked out at 80%. In addition, in assay [7], the mortality at 200 ppm worked out at 0% and the mortality at 400 ppm worked out at 0%. Besides, in assay [8], the mortality at 200 ppm was 0% and the mortality at 400 ppm came to 0%. In addition, in assay [9], the mortality at 200 ppm amounted to 0% and the mortality at 400 ppm is 0%.

Turning to `CC(C)(C)c1ccc(CCOc2ncnc3c(Cl)cccc23)cc1` [Example 185, 8-chloro-4-[2-[4-(t-butyl)phenyl]ethoxy]quinazoline], the “POWD MDEW” value in assay [1] is recorded as “+ (+ = 20-89% control at 400 ppm)”. Further, in assay [2], the “RICE BLAST” value is reported as “++ (++ = 90-100% control at 400 ppm)”. Also, in [3], the “LEAF RUST” value was “+ (+ = 20-89% control at 400 ppm)”. In assay [4], the “GRAY MOLD” value is “- (- = 0-19% control at 400 ppm)”. The “DOWN MDEW” value in assay [5] is recorded as “++ (++ = 90-100% control at 400 ppm)”. Moreover, in assay [6], the mortality at 12 ppm came out at 0% and the mortality at 24 ppm was 0%. In [7], the mortality at 200 ppm came to 0% and the mortality at 400 ppm worked out at 0%. For the same molecule, in assay [8], the mortality at 200 ppm amounted to 80% and the mortality at 400 ppm worked out at 30%. Moreover, in [9], the mortality at 200 ppm is 50% and the mortality at 400 ppm was determined as 30%.

On to `CC(COc1ncnc2ccccc12)c1ccc(-c2ccccc2)cc1` (centres unmarked) [Example 187, 4-[2-(1,1'-biphenyl)-4-ylpropoxy]quinazoline], for which the “POWD MDEW” value in [1] was “- (- = 0-19% control at 400 ppm)”. Moreover, the “RICE BLAST” value in [2] is “+++ (+++ = 90-100% control at 100 ppm)”. In assay [3], the “LEAF RUST” value was “+ (+ = 20-89% control at 400 ppm)”. Besides, the “GRAY MOLD” value in [4] is reported as “- (- = 0-19% control at 400 ppm)”. In addition, the “DOWN MDEW” value in assay [5] is listed as “+ (+ = 20-89% control at 400 ppm)”. In addition, in [6], the mortality at 12 ppm was 0% and the mortality at 24 ppm came out at 0%. Further, in [7], the mortality at 200 ppm amounted to 0% and the mortality at 400 ppm came to 0%. In addition, in assay [8], the mortality at 200 ppm was 0% and the mortality at 400 ppm was found to be 0%. Also, in assay [9], the mortality at 200 ppm amounted to 0% and the mortality at 400 ppm amounted to 0%.
